Assay results as given in ChEMBL document CHEMBL1201862, “PubChem BioAssay data set” (2004).
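96-well plates; 48 h exposure; 5 concentrations. Endpoints by linear interpolation between flanking doses. Not reached: highest tested concentration assigned. GI50 marks 50% less growth.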 Active and inactive are the calls of the source. No stated cut-off is given here; in the data, active = GI50 up to about 1.1 µM and inactive = higher.

Columns and labels:
Assay in all cases: DTP human tumour cell line panel, 48 h
[1] = test system: A498
[2] = test system: CCRF-CEM
[3] = test system: EKVX
[4] = test system: HCT-116
[5] = test system: HOP-62
[6] = test system: IGROV-1
[7] = test system: LOX IMVI
[8] = test system: M14
[9] = test system: MOLT-4
[10] = test system: NCI-H226
[11] = test system: OVCAR-4
[12] = test system: RPMI-8226
[13] = test system: SK-MEL-2
[14] = test system: SK-MEL-5
[15] = test system: TK-10
[16] = test system: UACC-257
[17] = test system: UO-31
[18] = test system: Malme-3M

Structure (SMILES)	GI50 [1]	GI50 [2]	GI50 [3]	GI50 [4]	GI50 [5]	GI50 [6]	GI50 [7]	GI50 [8]	GI50 [9]	GI50 [10]	GI50 [11]	GI50 [12]	GI50 [13]	GI50 [14]	GI50 [15]	GI50 [16]	GI50 [17]	GI50 [18]
CCOc1ccc(NC(=O)C(=O)CC(=O)c2sc(NNC(C)=O)nc2C)cc1	> 100 µM (inactive)	> 100 µM (inactive)	40.9 µM (inactive)	> 100 µM (inactive)	> 100 µM (inactive)	> 100 µM (inactive)	> 100 µM (inactive)	> 100 µM (inactive)	> 100 µM (inactive)	> 100 µM (inactive)	> 100 µM (inactive)	> 100 µM (inactive)	> 100 µM (inactive)	> 100 µM (inactive)	> 100 µM (inactive)	> 100 µM (inactive)	> 100 µM (inactive)	–
C/C(=N/NC(N)=S)c1ccc2ccccc2c1	42.4 µM (inactive)	22.5 µM (inactive)	0.443 µM (active)	23.8 µM (inactive)	46.6 µM (inactive)	32.7 µM (inactive)	39.8 µM (inactive)	11.8 µM (inactive)	21.9 µM (inactive)	39.8 µM (inactive)	28.3 µM (inactive)	–	15.8 µM (inactive)	14.2 µM (inactive)	74.6 µM (inactive)	41.9 µM (inactive)	–	41 µM (inactive)
CCc1cccc(C(C)C)c1N1C(=O)C(=O)C(c2nc3ccccc3s2)C(=O)C1=O	> 50 µM (inactive)	11.3 µM (inactive)	> 50 µM (inactive)	20 µM (inactive)	> 50 µM (inactive)	> 50 µM (inactive)	> 46.2 µM (inactive)	> 44.4 µM (inactive)	12.6 µM (inactive)	–	> 50 µM (inactive)	18.3 µM (inactive)	> 50 µM (inactive)	21.8 µM (inactive)	> 50 µM (inactive)	> 39.3 µM (inactive)	> 50 µM (inactive)	> 26.2 µM (inactive)
O=C(N/C(=C\c1ccc(/C=C(\NC(=O)c2ccccc2)c2nc3cc([N+](=O)[O-])ccc3[nH]2)cc1)c1nc2cc([N+](=O)[O-])ccc2[nH]1)c1ccccc1	26 µM (inactive)	20.8 µM (inactive)	32.9 µM (inactive)	28.1 µM (inactive)	> 100 µM (inactive)	82.8 µM (inactive)	28.8 µM (inactive)	30.8 µM (inactive)	11 µM (inactive)	–	39.5 µM (inactive)	12 µM (inactive)	14.9 µM (inactive)	22.2 µM (inactive)	32.1 µM (inactive)	47.8 µM (inactive)	46.7 µM (inactive)	> 100 µM (inactive)
CSc1nsc(-c2ccccc2)[s+]1.[O-][Cl+3]([O-])([O-])[O-]	> 100 µM (inactive)	> 100 µM (inactive)	> 100 µM (inactive)	> 100 µM (inactive)	> 100 µM (inactive)	> 100 µM (inactive)	–	> 100 µM (inactive)	> 100 µM (inactive)	> 100 µM (inactive)	> 100 µM (inactive)	> 100 µM (inactive)	> 100 µM (inactive)	> 100 µM (inactive)	> 100 µM (inactive)	> 100 µM (inactive)	> 100 µM (inactive)	> 100 µM (inactive)
CC(=O)OCc1nnn2c1CCC2	–	> 100 µM (inactive)	> 100 µM (inactive)	> 100 µM (inactive)	> 100 µM (inactive)	> 100 µM (inactive)	> 100 µM (inactive)	> 100 µM (inactive)	> 100 µM (inactive)	–	> 100 µM (inactive)	–	> 100 µM (inactive)	> 100 µM (inactive)	> 100 µM (inactive)	> 100 µM (inactive)	> 100 µM (inactive)	> 100 µM (inactive)
COc1ccc(/C(C#N)=C2/O/C(=N/N)C(c3ccc(OC)c(OC)c3)C2=O)cc1OC (stereo not drawn)	–	> 100 µM (inactive)	> 100 µM (inactive)	> 100 µM (inactive)	–	> 100 µM (inactive)	> 100 µM (inactive)	> 100 µM (inactive)	> 100 µM (inactive)	> 100 µM (inactive)	–	> 100 µM (inactive)	> 100 µM (inactive)	> 100 µM (inactive)	> 100 µM (inactive)	> 100 µM (inactive)	> 100 µM (inactive)	> 100 µM (inactive)
Cc1ccc(NCCO)cc1	–	> 100 µM (inactive)	> 100 µM (inactive)	> 100 µM (inactive)	> 100 µM (inactive)	> 100 µM (inactive)	> 100 µM (inactive)	> 100 µM (inactive)	85.1 µM (inactive)	> 100 µM (inactive)	> 100 µM (inactive)	> 100 µM (inactive)	> 100 µM (inactive)	> 100 µM (inactive)	> 100 µM (inactive)	> 100 µM (inactive)	> 100 µM (inactive)	> 100 µM (inactive)
COC(=O)C(Cc1cc(OC)c(OC)c(OC)c1)C(=O)OC	–	> 320 µM (inactive)	> 320 µM (inactive)	–	> 320 µM (inactive)	> 320 µM (inactive)	> 320 µM (inactive)	–	> 320 µM (inactive)	–	–	> 320 µM (inactive)	> 320 µM (inactive)	> 320 µM (inactive)	> 320 µM (inactive)	> 320 µM (inactive)	–	> 320 µM (inactive)
c1ccc2c(c1)nnn1c3cnccc3nc21	94 µM (inactive)	9.53 µM (inactive)	51.6 µM (inactive)	27.6 µM (inactive)	40.2 µM (inactive)	36.4 µM (inactive)	39.1 µM (inactive)	91 µM (inactive)	15.7 µM (inactive)	–	29 µM (inactive)	18.5 µM (inactive)	53.2 µM (inactive)	52.6 µM (inactive)	35.2 µM (inactive)	85.1 µM (inactive)	38.9 µM (inactive)	> 100 µM (inactive)
COc1ccc(-c2cc3[nH]nc(N)c3c(=O)o2)cc1	76.9 µM (inactive)	> 100 µM (inactive)	14 µM (inactive)	> 100 µM (inactive)	–	> 100 µM (inactive)	> 100 µM (inactive)	> 100 µM (inactive)	> 100 µM (inactive)	–	> 100 µM (inactive)	> 100 µM (inactive)	> 100 µM (inactive)	> 100 µM (inactive)	> 100 µM (inactive)	> 100 µM (inactive)	> 100 µM (inactive)	> 100 µM (inactive)
COc1cccc(NC(=O)/C(CC(=O)CC(c2ccccc2)c2c(O)c3ccccc3oc2=O)=N\NC(C)(C)C)c1OC (stereo not drawn)	> 100 µM (inactive)	25.7 µM (inactive)	43.4 µM (inactive)	69 µM (inactive)	86.1 µM (inactive)	64.3 µM (inactive)	36.9 µM (inactive)	44.5 µM (inactive)	28.7 µM (inactive)	–	> 100 µM (inactive)	29.3 µM (inactive)	> 100 µM (inactive)	> 100 µM (inactive)	> 100 µM (inactive)	> 100 µM (inactive)	72.1 µM (inactive)	> 100 µM (inactive)
CCOC(=O)/C=C1\Nc2ccccc2C(c2ccccc2)=NC1OC(C)=O (stereo not drawn)	> 100 µM (inactive)	> 100 µM (inactive)	> 100 µM (inactive)	> 100 µM (inactive)	> 100 µM (inactive)	> 100 µM (inactive)	> 100 µM (inactive)	> 100 µM (inactive)	> 100 µM (inactive)	–	> 100 µM (inactive)	76.6 µM (inactive)	> 100 µM (inactive)	> 100 µM (inactive)	–	> 100 µM (inactive)	44 µM (inactive)	> 100 µM (inactive)
O=C(Cc1nc2ccc([N+](=O)[O-])cc2nc1O)C(=O)Nc1ccccc1[N+](=O)[O-]	> 100 µM (inactive)	> 100 µM (inactive)	> 100 µM (inactive)	95.7 µM (inactive)	–	> 100 µM (inactive)	60.7 µM (inactive)	> 100 µM (inactive)	> 100 µM (inactive)	> 100 µM (inactive)	> 100 µM (inactive)	–	> 100 µM (inactive)	> 100 µM (inactive)	> 100 µM (inactive)	> 100 µM (inactive)	> 100 µM (inactive)	> 100 µM (inactive)
COC(=O)c1cc(Cl)ccc1NC(=O)c1ccc([N+](=O)[O-])cc1	17.5 µM (inactive)	22.8 µM (inactive)	31.8 µM (inactive)	4.78 µM (inactive)	15.2 µM (inactive)	19.8 µM (inactive)	–	29 µM (inactive)	35.6 µM (inactive)	20.3 µM (inactive)	3.33 µM (inactive)	20.2 µM (inactive)	49 µM (inactive)	47.5 µM (inactive)	16.9 µM (inactive)	39.2 µM (inactive)	17.2 µM (inactive)	23 µM (inactive)
COC1OC2=CCC3C(=O)NC(=O)C3C2[C@H](OCc2ccccc2)C1OCc1ccccc1 (stereo partly drawn)	–	1.15 µM (inactive)	1.85 µM (inactive)	1.55 µM (inactive)	17.9 µM (inactive)	2.04 µM (inactive)	1.73 µM (inactive)	1.81 µM (inactive)	1.5 µM (inactive)	–	3.84 µM (inactive)	–	5.36 µM (inactive)	19 µM (inactive)	1.72 µM (inactive)	2.09 µM (inactive)	17.7 µM (inactive)	1.77 µM (inactive)
C=C(C)C(=O)OC1CCC2(C)C(CCC3C2CCC2(C)C(c4ccc(=O)oc4)CC4OC432)C1 (stereo not drawn)	5.02 µM (inactive)	3.26 µM (inactive)	2.42 µM (inactive)	2.75 µM (inactive)	3.31 µM (inactive)	6.75 µM (inactive)	3.82 µM (inactive)	–	2.41 µM (inactive)	9.42 µM (inactive)	5.75 µM (inactive)	1.6 µM (inactive)	4.28 µM (inactive)	3.8 µM (inactive)	–	2.96 µM (inactive)	4.75 µM (inactive)	8.13 µM (inactive)
